Reference: ChEMBL document CHEMBL1146917, “Discovery and structure-activity relationship of 2-phenyl-oxazole-4-carboxamide derivatives as potent apoptosis inducers” (Bioorg Med Chem Lett, 2006)
In brackets after ≈: the same amount, converted by molar mass. Activity calls are given as the source filed them. The rule behind the calls is not given here.

Columns and labels:
[1] = tested on: DLD-1; assay: Induction of apoptosis in human DLD1 cells assessed as activation of caspases by HTS assay; format: functional, cell-based
[2] = tested on: DLD-1; assay: Growth inhibition of human DLD1 cells; format: functional
[3] = Solubility of the compound; format: physicochemical
[4] = tested on: DLD-1; assay: Activity against caspase-mediated PARP cleavage in human DLD1 cells at 1 uM after 48 hrs by Western blot analysis; format: functional, cell-based
[5] = tested on: DLD-1; assay: Activity against DNA laddering in DLD1 cells at 1 uM after 48 hrs; format: functional, cell-based; settings: Homo sapiens
[6] = tested on: DLD-1; assay: Inhibition of tumor growth in BALB/c nude mouse implanted with DLD1 cells at 50 mg/kg, ip, qd; format: functional; settings: DLD-1, ip
[7] = tested on: DLD-1; assay: Inhibition of tumor growth in BALB/c nude mouse implanted with DLD1 cells at 100 mg/kg, ip, qd; format: functional; settings: DLD-1, ip
[8] = tested on: DLD-1; assay: Inhibition of tumor growth in BALB/c nude mouse implanted with DLD1 cells at 50 mg/kg, ip, bid; format: functional; settings: DLD-1, ip

Structure (SMILES): COC1CCN(C(=O)c2coc(-c3ccc(CNC(=O)Cc4ccccc4)cc3)n2)CC1
- EC50 [1]: 5230 nM

Structure (SMILES): CC1CCN(C(=O)c2coc(-c3ccc(CNC(=O)Cc4ccccc4)cc3)n2)CC1
- EC50 [1]: 258 nM

Structure (SMILES): CC1CCCN(C(=O)c2coc(-c3ccc(CNC(=O)Cc4ccccc4)cc3)n2)C1 (stereo unspecified)
- EC50 [1]: 193 nM

Structure (SMILES): O=C(Cc1ccc(OC(F)(F)F)cc1)NCc1ccc(-c2nc(C(=O)N3CCCCC3)co2)cc1
- EC50 [1]: 270 nM
- GI50 [2]: 229 nM
- solubility [3]: 44 µM (≈ 21.4 µg/mL)
- Activity [4]: Active
- Activity [5]: Active
- inhibition in vivo at 50 mg/kg [6]: 21%
- inhibition in vivo at 100 mg/kg [7]: 38%
- inhibition in vivo at 50 mg/kg [8]: 63%

Structure (SMILES): Cc1ccc(CC(=O)NCc2ccc(-c3nc(C(=O)N4CCCCC4)co3)cc2)cc1
- EC50 [1]: 142 nM

Structure (SMILES): O=C(Cc1ccccc1)NCc1ccc(-c2nc(C(=O)N3CCC(F)(F)CC3)co2)cc1
- EC50 [1]: 979 nM

Structure (SMILES): O=C(Cc1ccccc1)NCc1ccc(-c2nc(C(=O)N3CCCC(F)C3)co2)cc1 (stereo unspecified)
- EC50 [1]: 85 nM

Structure (SMILES): O=C1CCN(C(=O)c2coc(-c3ccc(CNC(=O)Cc4ccccc4)cc3)n2)CC1
- EC50 [1]: 115 nM

Structure (SMILES): O=C(Cc1ccccc1)NCc1ccc(-c2nc(C(=O)N3CCCC3)co2)cc1
- EC50 [1]: 553 nM

Structure (SMILES): O=C(Cc1ccc(F)cc1)NCc1ccc(-c2nc(C(=O)N3CCCCC3)co2)cc1
- EC50 [1]: 233 nM

Structure (SMILES): O=C(Cc1ccccc1)NCc1ccc(-c2nc(C(=O)N3CCC(F)CC3)co2)cc1
- EC50 [1]: 304 nM

Structure (SMILES): O=C(Cc1ccccc1)NCc1ccc(-c2nc(C(=O)N3CCCCCCC3)co2)cc1
- EC50 [1]: 108 nM

Structure (SMILES): O=C(Cc1cccs1)NCc1ccc(-c2nc(C(=O)N3CCCCC3)co2)cc1
- EC50 [1]: 59 nM
- GI50 [2]: 75 nM
- solubility [3]: 29 µM (≈ 11.9 µg/mL)

Structure (SMILES): O=C(Cc1cccc(F)c1)NCc1ccc(-c2nc(C(=O)N3CCCCC3)co2)cc1
- EC50 [1]: 72 nM

Structure (SMILES): O=C(Cc1ccccc1)NCc1ccc(-c2nc(C(=O)N3CCCCCC3)co2)cc1
- EC50 [1]: 33 nM

Structure (SMILES): O=C(Cc1ccccc1F)NCc1ccc(-c2nc(C(=O)N3CCCCC3)co2)cc1
- EC50 [1]: 65 nM

Structure (SMILES): O=C(Cc1ccccc1)NCc1ccc(-c2nc(C(=O)N3CCC(O)CC3)co2)cc1
- EC50 [1]: 150 nM

Structure (SMILES): O=C(Cc1ccc(O)cc1)NCc1ccc(-c2nc(C(=O)N3CCCCC3)co2)cc1
- EC50 [1]: 73 nM

Structure (SMILES): O=C(Cc1ccccc1O)NCc1ccc(-c2nc(C(=O)N3CCCCC3)co2)cc1
- EC50 [1]: 1010 nM

Structure (SMILES): O=C(Cc1ccccc1)NCc1ccc(-c2nc(C(=O)N3CCCC(O)C3)co2)cc1 (stereo unspecified)
- EC50 [1]: 196 nM

Structure (SMILES): C[C@@H]1CC[C@H](C)N1C(=O)c1coc(-c2ccc(CNC(=O)Cc3ccccc3)cc2)n1
- EC50 [1]: 34 nM

Structure (SMILES): O=C(Cc1cccc(Cl)c1)NCc1ccc(-c2nc(C(=O)N3CCCCC3)co2)cc1
- EC50 [1]: 533 nM

Structure (SMILES): O=C(Cc1ccccc1)NCc1ccc(-c2nc(C(=O)N3CC=CCC3)co2)cc1
- EC50 [1]: 108 nM

Structure (SMILES): O=C(Cc1ccccc1)NCc1ccc(-c2nc(C(=O)N3CCC(Cl)CC3)co2)cc1
- EC50 [1]: 492 nM

Structure (SMILES): O=C1CCCN(C(=O)c2coc(-c3ccc(CNC(=O)Cc4ccccc4)cc3)n2)C1
- EC50 [1]: 235 nM

Structure (SMILES): O=C(Cc1cccc(O)c1)NCc1ccc(-c2nc(C(=O)N3CCCCC3)co2)cc1
- EC50 [1]: 139 nM

Structure (SMILES): O=C(Cc1ccccc1)NCc1ccc(-c2nc(C(=O)N3CCCC(F)(F)C3)co2)cc1
- EC50 [1]: 20 nM
- GI50 [2]: 15 nM
- solubility [3]: < 10 µM

Structure (SMILES): COC1CCCN(C(=O)c2coc(-c3ccc(CNC(=O)Cc4ccccc4)cc3)n2)C1 (stereo unspecified)
- EC50 [1]: 259 nM

Structure (SMILES): O=C(Cc1ccccc1)NCc1ccc(-c2nc(C(=O)N3CCC(CO)CC3)co2)cc1
- EC50 [1]: 196 nM

Structure (SMILES): O=C(Cc1ccc(Cl)cc1)NCc1ccc(-c2nc(C(=O)N3CCCCC3)co2)cc1
- EC50 [1]: 274 nM

Structure (SMILES): O=C(Cc1ccccc1)NCc1ccc(-c2nc(C(=O)N3CC4CC4C3)co2)cc1 (stereo unspecified)
- EC50 [1]: 318 nM

Structure (SMILES): O=C(Cc1ccccc1)NCc1ccc(-c2nc(C(=O)N3CCCC(Cl)C3)co2)cc1 (stereo unspecified)
- EC50 [1]: 119 nM

Structure (SMILES): O=C(Cc1ccccc1)NCc1ccc(-c2nc(C(=O)N3CCCCC3)co2)cc1
- EC50 [1]: 65 nM
- GI50 [2]: 258 nM
- solubility [3]: 47 µM (≈ 19 µg/mL)
